The source of these data is patent publication US6399568B1, “Cyclic tetrapeptide derivatives and medicinal use thereof” (Japan Energy Corporation, priority 1997, dated 2002).

Assay [1] deals with mouse malignant melanoma B16 cell line. Put plainly: Cell proliferation inhibition (72 hours). The conditions noted are these: read-out: 50% proliferation inhibiting concentration B16 (nM) mean. The class given is cell-based.
In assay [2] the test system is L1210. As to the kind of experiment: In vivo anti-cancer activity in mouse (ascites tumor system). Particulars: for Median Survival days (T/C %): L1210 ascites, CDF1 mouse. As to the method:
(§1) With respect to an ascites tumor system, in vivo anti-cancer activity of the cyclic tetrapeptide compounds according to the present invention was evaluated using cancer-carrying mouse. The cancer cells used were L1210, B16, Colon26and MH134. These cancer cells were cultured in a conventional manner and suspended in PBS, and 10^5 cells of L1210, or 10^6 cells of B16, Colon26 or MH134 were intraperitoneally transplanted into each mouse (100 μl/mouse). The mouse used was CDF1, BDF1, CDF1 or C3H/HeN (male, 7 weeks in age) for L1210, B16, Colon 26or MH134, respectively. Drug administration was started from the day next to the transplantation of cancer cells. For L1210, 0.5% carboxymethyl cellulose Na suspension and for other cancer cells, PBS solution (actually, as suspension neutralized with NaOH) were continuously administered everyday (100 μl/mouse). The period of administration was 4 days for L1210, 9 days for B16 and MH134, and 8 days for Colon26.
(§2) After the administration period passed, the mice administered were bred and median survival days were calculated on the basis of the number of days from the transplantation of cancer cells to death. The percent ratio (T/C%) between the median survival days (C) for a control group to which an equal amount of a drug-free solution was administered and the median survival days (T) of the treated group administered with the drug was determined.

For assay [3], the system named is Colon26. The assay is described as above. The conditions noted are these: for Median Survival days (T/C %): Colon26 ascites, CDF1 mouse. As to the method:
as §1, §2

Assay [4] concerns mouse malignant melanoma B16/BL6 cell line. The class given is cell-based. Particulars: 72 hours; read-out: 50% proliferation inhibiting concentration B16/BL6 (nM) mean.
Assay [5] addresses histone deacetylase. As to the kind of experiment: Histone deacetylase enzyme inhibiting activity, synthetic peptide substrate. The class given is biochemical, mouse. The conditions noted are these: enzyme from B16/BL6 cells; [3H]acetylated histone H4 peptide; 37° C. 3 hours. Put shortly: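 Crude HDAC was partially purified from B16/BL6 cell nuclei by ammonium sulfate precipitation and gel filtration. Enzyme was incubated with [^3H]acetylated histone H4 N-terminal peptide and compound at 37° C. for 3 h. Released [^3H]acetate was ethyl acetate-extracted and counted, giving IC50 versus the no-compound control.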

Each structure is given as a SMILES string. Non-standard residues stand in square brackets, D forms with d. Residues, ends and D or L forms follow the SMILES beside them. *: point of attachment. Asu = N[C@@H](CCCCCC(=O)O)C(=O)O; NHOH = ON*

In the case of `CC[C@H](C)[C@@H]1NC(=O)[C@@H](Cc2ccc(OC)cc2)NC(=O)[C@H](CCCCCC(=O)NO)NC(=O)[C@H]2CCCN2C1=O` [HDA-31, cyclo(-L-Asu(NHOH)-D-Tyr(Me)-L-Ile-D-Pro-)] (cyclo([Asu](NHOH)[dY](Me)I[dP])), the figures for the IC50 in assay [1], in assay [4] and in assay [5] were 44.2 nM, 5.43 nM and 3.32 nM, respectively. For the same molecule, the life-saving effect result was “obviously exhibited a life-saving effect” in assay [2] (L1210 ascites tumor) and “no life-saving effect was observed” in assay [3] (Colon26 ascites tumor). The “Median Survival days (T/C %)” value worked out at 113% in assay [2] (0.015 mg/mouse everyday for 4 days); 125% in assay [2] (0.15 mg/mouse everyday for 4 days); 37.5% in assay [2] (1.5 mg/mouse everyday for 4 days); 90.9% in assay [3] (0.015 mg/mouse everyday for 8 days); 86.4% in assay [3] (0.05 mg/mouse everyday for 8 days); 63.6% in assay [3] (0.15 mg/mouse everyday for 8 days).
